The text below walks through data of ChEMBL document CHEMBL1144007, “Activity of Mannich bases of 7-hydroxycoumarin against Flaviviridae” (Bioorg Med Chem, 2008).

What is called EC50 is the midpoint of the concentration-response curve. Broadly, the CC50 is the concentration at which the toxic effect on the cells reaches its halfway point. Lower therefore signals greater toxicity to the cells.

Data set [1] concerns Yellow fever virus. In words: Antiviral activity against YFV in BHK cells assessed as protection from virus-induced cytopathogenicity by MTT method. The format is functional, organism-based.
Data set [2] deals with Poliovirus 1. Nature of the data set: Antiviral activity against Human poliovirus 1 Sabin. The class given is functional.
Data set [3] deals with Respiratory syncytial virus. In words: Antiviral activity against RSV A2 in VERO76 cells assessed as reduction of plaque number by MTT method. The format is functional, organism-based. The settings on record: human respiratory syncytial virus, A2, Vero 76. (Tetrazolium dyes change colour on reduction, which living cells bring about.)
The test system of data set [4] is Vaccinia virus. Nature of the data set: Antiviral activity against vaccinia virus. The format is functional, organism-based. The settings on record: Orthopoxvirus vaccinia.
In data set [5] the test system is Human immunodeficiency virus 1. Nature of the data set: Antiviral activity against HIV1. The class given is functional, organism-based.
The test system of data set [6] is Reovirus sp. Nature of the data set: Antiviral activity against Reovirus. The class given is functional, organism-based.
The test system of data set [7] is Vesicular stomatitis virus. Nature of the data set: Antiviral activity against vesicular stomatitis virus. The format is functional, organism-based.
Data set [8] can be described thus: Cytotoxicity against human MT4 cells after 96 hrs by MTT method. The class given is cell-based.
Data set [9] deals with Bovine viral diarrhea virus 1. In words: Antiviral activity against BVDV NADL in MDBK cells assessed as protection from virus-induced cytopathogenicity by MTT method. The class given is functional, organism-based. To be noted: Bovine viral diarrhea virus isolates and strains. Background: Cytopathic effects are the visible damage that an infection or toxin causes in cultured cells.

SMILES strings stand for the structures. Activity calls are given as the source filed them. No rule for the calls is given here. A value given as a limit tells only on which side of the number the result lay.

For `COCCN(CCOC)c1oc2ccc3ccccc3c2c(=O)c1Cc1c(OC(C)=O)ccc2ccc(=O)oc12`, the EC50 is 100 µM in data set [1], 5 µM in data set [3] and 78 µM in data set [9]. The outcome in data set [2], in data set [4], in data set [5], in data set [6] and in data set [7] was inactive. For the same compound, in data set [8], the CC50 at 96 h is greater than 100 µM.
Turning to `CCN(CC)c1oc2ccc3ccccc3c2c(=O)c1Cc1c(OC(C)=O)ccc2ccc(=O)oc12`, the EC50 in data set [1], in data set [3] and in data set [9] was greater than 100 µM each time. Besides, the result in [2], in [4], in [5], in data set [6] and in data set [7] was inactive. For the same compound, the CC50 at 96 h in data set [8] is greater than 100 µM.
Take `O=c1ccc2ccc(O)c(CN3CCc4ccccc4C3)c2o1`: the EC50 in [1], in data set [3] and in [9] was greater than 100 µM throughout. In addition, the result in data set [2], in [4], in data set [5], in data set [6] and in data set [7] was inactive. The compound also came in with a CC50 at 96 h in data set [8] greater than 100 µM.
For the compound `CN(CC(=O)O)Cc1c(O)ccc2ccc(=O)oc12`, the half-maximal effective concentration (EC50) in data set [1], in data set [3] and in data set [9] was greater than 100 µM each time. For the same compound, the result in [2], in [4], in data set [5], in [6] and in [7] was inactive. Besides, the CC50 at 96 h in data set [8] was greater than 100 µM.
For the compound `CCC(=O)Oc1ccc2ccc(=O)oc2c1Cc1c[nH]c2ccccc12`, the EC50 is greater than 52 µM in data set [1], greater than 54 µM in data set [3] and no less than 55 µM in data set [9]. In addition, the result in data set [2], in [4], in data set [5], in data set [6] and in data set [7] was inactive. For the same compound, the CC50 at 96 h in [8] was found to be 65 µM.
As for `Cc1cc(=O)oc2c(CN3CCc4ccccc4C3)c(OC(=O)c3ccccc3)ccc12`, the values for the EC50 in data set [1], in data set [3] and in data set [9] were greater than 100 µM, 18 µM and greater than 100 µM, respectively. Besides, the result in [2], in data set [4], in data set [5], in [6] and in [7] was inactive. The CC50 at 96 h in data set [8] was greater than 100 µM.
In the case of `CCN(CC)c1oc2cc(OC)ccc2c(=O)c1Cc1c(O)ccc2c(C)cc(=O)oc12`, the EC50 in [1], in data set [3] and in data set [9] was greater than 100 µM each time. The result in [2], in data set [4], in data set [5], in data set [6] and in data set [7] was inactive. Moreover, the CC50 at 96 h in data set [8] was greater than 100 µM.
For the compound `CC(=O)Oc1ccc2c(C)cc(=O)oc2c1Cc1c(C)[nH]c2ccccc12`, the EC50 is greater than 100 µM in data set [1], 25 µM in [3] and greater than 100 µM in data set [9]. The result in [2], in data set [4], in data set [5], in data set [6] and in data set [7] was inactive. In addition, the CC50 at 96 h in [8] turned out to be 41 µM.
Take `COc1ccc2c(=O)c(Cc3c(O)ccc4c(C)cc(=O)oc34)c(N3CCCC3)oc2c1`: the EC50 in [1], in data set [3] and in data set [9] was greater than 100 µM in each case. The result in data set [2], in data set [4], in [5], in [6] and in [7] was inactive. The same compound yielded a CC50 at 96 h in [8] greater than 100 µM.
Turning to `Cc1[nH]c2ccccc2c1Cc1c(OC(=O)CCCC(=O)O)ccc2ccc(=O)oc12`, the values for the EC50 in [1], in data set [3] and in [9] were greater than 100 µM, greater than 92 µM and greater than 67 µM, respectively. Besides, the outcome in data set [2], in [4], in data set [5], in data set [6] and in data set [7] was inactive. This compound returned a CC50 at 96 h in data set [8] of 27 µM.
`CN1CCN(Cc2c(O)ccc3ccc(=O)oc23)CC1`: the EC50 in data set [1], in data set [3] and in data set [9] was greater than 100 µM each time. The result in data set [2], in data set [4], in data set [5], in [6] and in data set [7] was inactive. This compound also yielded a CC50 at 96 h in data set [8] greater than 100 µM.
Regarding `Cc1cc(=O)oc2c(CN(C)CC(=O)O)c(O)ccc12`, the EC50 in data set [1], in data set [3] and in data set [9] was greater than 100 µM throughout. For the same compound, the outcome in data set [2], in data set [4], in [5], in data set [6] and in [7] was inactive. The CC50 at 96 h in [8] is greater than 100 µM.
As to `CC(=O)Oc1ccc2ccc(=O)oc2c1Cc1c(-c2ccccc2)[nH]c2ccccc12`, the figures for the EC50 in [1], in data set [3] and in data set [9] were greater than 100 µM, greater than 100 µM and greater than 57 µM, respectively. For the same compound, the result in data set [2], in data set [4], in data set [5], in data set [6] and in data set [7] was inactive. The compound also gave a CC50 at 96 h in data set [8] greater than 100 µM.
For the compound `CC(=O)Oc1ccc2ccc(=O)oc2c1Cc1c(C)[nH]c2ccccc12`, the half-maximal effective concentration (EC50) is greater than 73 µM in data set [1], greater than 100 µM in data set [3] and greater than 86 µM in data set [9]. Also, the outcome in data set [2], in data set [4], in [5], in [6] and in data set [7] was inactive. In [8], this compound gave a CC50 at 96 h of 62 µM.
For the compound `Cc1cc(=O)oc2c(CN3CCN(Cc4ccc5c(c4)OCO5)CC3)c(O)ccc12`, the EC50 was greater than 100 µM in data set [1], greater than 100 µM in data set [3] and 75 µM in [9]. For the same compound, the result in data set [2], in data set [4], in data set [5], in [6] and in [7] was inactive. The compound also registered a CC50 at 96 h in data set [8] of 72 µM.
Consider `Cc1[nH]c2ccccc2c1Cc1c(OC(=O)CCCC(=O)O)ccc2c(C)cc(=O)oc12`, for which the EC50 in data set [1] was greater than 64 µM; in data set [3] it was greater than 100 µM; in [9], greater than 69 µM. Also, the result in data set [2], in data set [4], in [5], in data set [6] and in [7] was inactive. Besides, in [8], the CC50 at 96 h stood at 29 µM.
For the compound `O=C(Oc1ccc2ccc(=O)oc2c1CN1CCN(Cc2ccc3c(c2)OCO3)CC1)c1ccccc1`, the figures for the EC50 in data set [1], in [3] and in data set [9] were greater than 100 µM, 85 µM and 77 µM, respectively. Moreover, the outcome in data set [2], in [4], in data set [5], in [6] and in data set [7] was inactive. For the same compound, it took 74 µM to reach half-maximal cytotoxicity in [8] (CC50 at 96 h).
For the compound `CCN(CC)c1oc2cc(OC(C)=O)ccc2c(=O)c1Cc1c(OC(C)=O)ccc2c(C)cc(=O)oc12`, the figures for the EC50 in data set [1], in [3] and in data set [9] were greater than 100 µM, 11 µM and greater than 100 µM, respectively. Further, the outcome in [2], in [4], in data set [5], in data set [6] and in data set [7] was inactive. This compound gave a CC50 at 96 h in data set [8] of 44 µM.
`O=c1ccc2ccc(O)c(CN3CCN(Cc4ccc5c(c4)OCO5)CC3)c2o1`: the EC50 in [1], in [3] and in data set [9] was greater than 100 µM each time. Moreover, the result in data set [2], in [4], in data set [5], in [6] and in data set [7] was inactive. This compound returned a CC50 at 96 h in [8] of 13 µM.
As for `CCCOc1ccc2c(C)cc(=O)oc2c1CN1CCN(c2ccc(C(C)=O)cc2)CC1`, the figures for the EC50 in data set [1], in data set [3] and in [9] were greater than 100 µM, greater than 100 µM and 8 µM, respectively. Moreover, the result in data set [2], in data set [4], in data set [5], in [6] and in data set [7] was inactive. For the same compound, in data set [8], the half-maximal cytotoxic concentration (CC50) at 96 h is 25 µM.
`CCCOc1ccc2c(C)cc(=O)oc2c1CN1CCCCC1`: the EC50 in data set [1] was greater than 100 µM; in [3] it was greater than 100 µM; in data set [9], 38 µM. Further, the result in data set [2], in data set [4], in [5], in [6] and in [7] was inactive. Further, the CC50 at 96 h in data set [8] was greater than 100 µM.
